Assay results from ChEMBL document CHEMBL4385621, “Synthesis and in vitro cytotoxicity evaluation of β-carboline-combretastatin carboxamides as apoptosis inducing agents: DNA intercalation and topoisomerase-II inhibition” (Bioorg Med Chem, 2019).
Active and inactive are the calls of the source. The calls are words filed in the database; no cut-off is given here.

Tests used:
[1] = test system: HeLa; test: Antiproliferative activity against human HeLa cells assessed as reduction in cell viability after 48 hrs by SRB assay; format: functional, cell-based
[2] = test system: DU-145; test: Antiproliferative activity against human DU145 cells assessed as reduction in cell viability after 48 hrs by SRB assay; format: functional, cell-based; details: DU-145, 48 h
[3] = test system: A549; test: Antiproliferative activity against human A549 cells assessed as reduction in cell viability after 48 hrs by SRB assay; format: functional, cell-based; details: A549, 48 h
[4] = test system: A549; test: Cell cycle arrest in human A549 cells assessed as increase in accumulation of G2/M phase at 1 to 5 uM after 24 hrs by propidium iodide staining based flow cytometric analysis; format: functional
[5] = test system: A549; test: Cell cycle arrest in human A549 cells assessed as reduction in G0/G1 phase at 1 to 5 uM after 24 hrs by propidium iodide staining based flow cytometric analysis; format: functional
[6] = target: DNA topoisomerase II (Homo sapiens) (UniProt P11388+Q02880); test: Inhibition of human topoisomerase-2 assessed as reduction in decatenation of kDNA at 10 uM incubated for 30 mins by ethidium bromide staining based agarose gel electrophoresis method; format: protein assay
[7] = test system: A549; test: Induction of apoptosis in human A549 cells assessed as reduction in cell viability at 1 to 5 uM after 24 hrs by phase contrast microscopic method; format: functional, cell-based
[8] = test system: A549; test: Induction of apoptosis in human A549 cells assessed as cell shrinkage at 1 to 5 uM after 24 hrs by phase contrast microscopic method; format: functional, cell-based
[9] = test system: A549; test: Induction of apoptosis in human A549 cells assessed as cell detachment from substratum at 1 to 5 uM after 24 hrs by phase contrast microscopic method; format: functional, cell-based
[10] = test system: A549; test: Induction of apoptosis in human A549 cells assessed as nuclear fragmentation at 1 uM after 24 hrs by Hoechst […] staining based fluorescence microscopic method; format: functional, cell-based
[11] = test system: A549; test: Induction of apoptosis in human A549 cells assessed as chromatin condensation at 1 uM after 24 hrs by Hoechst […] staining based fluorescence microscopic method; format: functional, cell-based
[12] = test system: A549; test: Induction of apoptosis in human A549 cells assessed as increase in apoptotic nuclei at 3 to 5 uM after 24 hrs by Hoechst […] staining based fluorescence microscopic method; format: functional, cell-based
[13] = test system: A549; test: Induction of apoptosis in human A549 cells assessed as increase in ROS generation at 1 to 5 uM after 24 hrs by Carboxy-DCFDA dye based fluorescence microscopic method; format: functional, cell-based
[14] = test system: A549; test: Induction of apoptosis in human A549 cells assessed as viable cells at 1 uM after 24 hrs by Annexin V-FITC/propidium iodide staining based flow cytometry (reference value: 88.4%); format: functional; details: A549, 24 h, read-out: Activity
[15] = test system: A549; test: Induction of apoptosis in human A549 cells assessed as early apoptotic cells at 1 uM after 24 hrs by Annexin V-FITC/propidium iodide staining based flow cytometry (reference value: 11.2%); format: functional
[16] = test system: A549; test: Induction of apoptosis in human A549 cells assessed as late apoptotic cells at 1 uM after 24 hrs by Annexin V-FITC/propidium iodide staining based flow cytometry (reference value: 0.4%); format: functional
[17] = test system: A549; test: Induction of apoptosis in human A549 cells assessed as necrotic cells at 1 uM after 24 hrs by Annexin V-FITC/propidium iodide staining based flow cytometry (reference value: 0%); format: functional
[18] = test system: A549; test: Induction of apoptosis in human A549 cells assessed as viable cells at 3 uM after 24 hrs by Annexin V-FITC/propidium iodide staining based flow cytometry (reference value: 88.4%); format: functional; details: A549, 24 h, read-out: Activity
[19] = test system: A549; test: Induction of apoptosis in human A549 cells assessed as early apoptotic cells at 3 uM after 24 hrs by Annexin V-FITC/propidium iodide staining based flow cytometry (reference value: 11.2%); format: functional
[20] = test system: A549; test: Induction of apoptosis in human A549 cells assessed as late apoptotic cells at 3 uM after 24 hrs by Annexin V-FITC/propidium iodide staining based flow cytometry (reference value: 0.4%); format: functional
[21] = test system: A549; test: Induction of apoptosis in human A549 cells assessed as necrotic cells at 3 uM after 24 hrs by Annexin V-FITC/propidium iodide staining based flow cytometry (reference value: 0%); format: functional
[22] = test system: A549; test: Induction of apoptosis in human A549 cells assessed as viable cells at 5 uM after 24 hrs by Annexin V-FITC/propidium iodide staining based flow cytometry (reference value: 88.4%); format: functional; details: A549, 24 h, read-out: Activity
[23] = test system: A549; test: Induction of apoptosis in human A549 cells assessed as early apoptotic cells at 5 uM after 24 hrs by Annexin V-FITC/propidium iodide staining based flow cytometry (reference value: 11.2%); format: functional
[24] = test system: A549; test: Induction of apoptosis in human A549 cells assessed as late apoptotic cells at 5 uM after 24 hrs by Annexin V-FITC/propidium iodide staining based flow cytometry (reference value: 0.4%); format: functional
[25] = test system: A549; test: Induction of apoptosis in human A549 cells assessed as necrotic cells at 5 uM after 24 hrs by Annexin V-FITC/propidium iodide staining based flow cytometry (reference value: 0%); format: functional
[26] = test system: Calf thymus DNA; test: Binding affinity to calf thymus DNA assessed as dissociation constant after 5 mins by UV-Visible spectroscopic method; format: nucleic-acid assay, Bos taurus
[27] = test system: Calf thymus DNA; test: Binding affinity to calf thymus DNA assessed as decrease in emission peak intensity by spectrofluorimetric method; format: nucleic-acid assay; details: Bos taurus
[28] = test system: Calf thymus DNA; test: Stabilization of calf thymus DNA assessed as hyperchromicity at DNA to compound ratio of 1:1 by circular dichroism spectropolarimetric analysis; format: nucleic-acid assay; details: Bos taurus
[29] = test system: Calf thymus DNA; test: Binding affinity to calf thymus DNA assessed as decrease in emission peak intensity using varying DNA level by spectrofluorimetric method; format: nucleic-acid assay; details: Bos taurus
[30] = test system: Calf thymus DNA; test: Binding affinity to calf thymus DNA assessed as hypochromicity after 5 mins by UV-Vis absorption spectral analysis; format: nucleic-acid assay; details: Bos taurus
[31] = test system: Calf thymus DNA; test: Binding affinity to calf thymus DNA assessed as hypochromicity at DNA to compound ratio of 1:1 to 1:2 by circular dichroism analysis; format: nucleic-acid assay; details: Bos taurus
[32] = test system: Calf thymus DNA; test: Binding affinity to calf thymus DNA assessed as unwinding effect at DNA to compound ratio of 1:1 to 1:2 by circular dichroism analysis; format: nucleic-acid assay; details: Bos taurus
[33] = test system: Calf thymus DNA; test: Binding affinity to calf thymus DNA assessed as confirmational change at DNA to compound ratio of 1:1 to 1:2 by circular dichroism analysis; format: nucleic-acid assay; details: Bos taurus
[34] = test system: A549; test: Induction of apoptosis in human A549 cells after 24 hrs by Annexin V-FITC/propidium iodide staining based flow cytometry; format: functional, cell-based
[35] = test system: Calf thymus DNA; test: Effect on calf thymus DNA stabilization assessed as increase in negative band intensity by circular dichroism spectropolarimetric analysis; format: nucleic-acid assay; details: Bos taurus

IC50 [1]: 9.97 µM
IC50 [2]: 1.51 µM
IC50 [3]: 1.01 µM
inhibition [6]: Active
Activity [27]: Active
Activity [28]: Active
Activity [29]: Active
Activity [30]: Active
Activity [31]: Active
Activity [32]: Active
Activity [33]: Active
Activity [35]: Active
Structure (SMILES): COc1cc(/C(=C\c2ccc(C(F)(F)F)cc2)C(=O)NCc2cc3c([nH]c4ccccc43)c(-c3cccc(F)c3)n2)cc(OC)c1OC
Activity [4]: Dose-dependent effect
Activity [5]: Active
Activity [7]: Active
Activity [8]: Active
Activity [9]: Active
Activity [10]: Active
Activity [11]: Active
Activity [12]: Active
Activity [13]: Active
viability at 1 µM [14]: 69.7%
Activity [15]: 20.4%
Activity [16]: 6.8%
Activity [17]: 3.2%
viability at 3 µM [18]: 62.8%
Activity [19]: 28.6%
Activity [20]: 6.7%
Activity [21]: 1.9%
viability at 5 µM [22]: 59.3%
Activity [23]: 33.4%
Activity [24]: 4.9%
Activity [25]: 2.4%
Kd [26]: 71 µM
Activity [34]: Dose-dependent effect
